According to ChEMBL document CHEMBL3046461, “Synthesis and herbicidal activity of sulfonanilides having a pyrimidinyl-containing group at the 2-position” (J Pestic Sci, 2011):

How the values were obtained:
[1] = tested on: Schoenoplectiella juncoides; assay: Herbicidal activity against Schoenoplectiella juncoides subsp. Hotarui (Ohwi) T. Koyama assessed as induction of crop damage after 28 days post compound application; assay type: functional
Pontederia vaginalis = assay: Herbicidal activity against Monochoria vaginalis assessed as induction of crop damage after 28 days post compound application; assay type: functional
Oryza sativa = assay: Phytotoxicity against two-leaf stage paddy Oryza sativa (rice) seedlings assessed as induction of crop damage after 28 days post compound application; assay type: organism-based; conditions: in vivo, 672 h
Echinochloa oryzicola = assay: Herbicidal activity against Echinochloa oryzicola assessed as induction of crop damage after 28 days post compound application; assay type: functional

With `CCCc1cccc(C(O)c2nc(OC)cc(OC)n2)c1NS(=O)(=O)C(F)F` (stereo not given) the ED90 [1] was 63 gAi/ha, the ED90 (Pontederia vaginalis) was 16 gAi/ha and the ED20 (Oryza sativa) was 63 gAi/ha. The ED20 (Echinochloa oryzicola) was 16 gAi/ha.

Compound `COc1cc(OC)nc(C(O)c2ccccc2NS(=O)(=O)CF)n1` (stereo not given) has an ED90 [1] of 16 gAi/ha, an ED90 (Pontederia vaginalis) of 16 gAi/ha and an ED20 (Oryza sativa) of 63 gAi/ha. For the same compound, the ED20 (Echinochloa oryzicola) was 63 gAi/ha.

`COc1cc(OC)nc(C(O)c2ccccc2NS(=O)(=O)CCl)n1` (stereo not given) was tested, and the ED90 [1] was 63 gAi/ha, the ED90 (Pontederia vaginalis) was 16 gAi/ha and the ED20 (Oryza sativa) was 250 gAi/ha. It also gave an ED20 (Echinochloa oryzicola) of 1000 gAi/ha.

In the case of `COc1cc(OC)nc(C(O)c2ccccc2NS(=O)(=O)CC#N)n1` (stereo not given), the ED90 [1] is reported as 250 gAi/ha, the ED90 (Pontederia vaginalis) is reported as 63 gAi/ha and the ED20 (Oryza sativa) is reported as 250 gAi/ha. The ED20 (Echinochloa oryzicola) was 1000 gAi/ha.

For `COc1cc(OC)nc(C(O)c2ccccc2NS(=O)(=O)C/C=C/Cl)n1` (stereo not given), the ED90 [1] was 1000 gAi/ha, the ED90 (Pontederia vaginalis) was 250 gAi/ha and the ED20 (Oryza sativa) was 250 gAi/ha. It also gave an ED20 (Echinochloa oryzicola) greater than 1000 gAi/ha.

Compound `COc1cc(OC)nc(C(O)c2ccccc2NS(C)(=O)=O)n1` (stereo not given) has an ED90 [1] greater than 1000 gAi/ha, an ED90 (Pontederia vaginalis) of 250 gAi/ha and an ED20 (Oryza sativa) of 63 gAi/ha. The ED20 (Echinochloa oryzicola) was 1000 gAi/ha.

With `CCS(=O)(=O)Nc1ccccc1C(O)c1nc(OC)cc(OC)n1` (stereo not given) the ED90 [1] was greater than 1000 gAi/ha, the ED90 (Pontederia vaginalis) was 1000 gAi/ha and the ED20 (Oryza sativa) was 1000 gAi/ha. It also gave an ED20 (Echinochloa oryzicola) of 1000 gAi/ha.

In the case of `COc1cc(OC)nc(C(O)c2ccccc2NS(=O)(=O)C(C)C)n1` (stereo not given), the ED90 [1] is reported as greater than 1000 gAi/ha, the ED90 (Pontederia vaginalis) is reported as 1000 gAi/ha and the ED20 (Oryza sativa) is reported as 1000 gAi/ha. For the same compound, the ED20 (Echinochloa oryzicola) was greater than 1000 gAi/ha.

In the case of `COc1cc(OC)nc(C(O)c2ccccc2NS(=O)(=O)c2ccccc2)n1` (stereo not given), the ED90 [1] is reported as greater than 1000 gAi/ha, the ED90 (Pontederia vaginalis) is reported as 1000 gAi/ha and the ED20 (Oryza sativa) is reported as 1000 gAi/ha. For the same compound, the ED20 (Echinochloa oryzicola) was greater than 1000 gAi/ha.

`COc1cc(OC)nc(C(O)c2ccccc2NS(N)(=O)=O)n1` (stereo not given) was tested, and the ED90 [1] was greater than 1000 gAi/ha, the ED90 (Pontederia vaginalis) was 1000 gAi/ha and the ED20 (Oryza sativa) was 250 gAi/ha. It also gave an ED20 (Echinochloa oryzicola) of 1000 gAi/ha.

With `COc1cc(OC)nc(C(=O)c2ccccc2NS(=O)(=O)C(F)(F)F)n1` the ED90 [1] was 16 gAi/ha, the ED90 (Pontederia vaginalis) was 16 gAi/ha and the ED20 (Oryza sativa) was 63 gAi/ha. It also gave an ED20 (Echinochloa oryzicola) of 1000 gAi/ha.

`COc1cc(OC)nc(C(OC)c2ccccc2NS(=O)(=O)C(F)(F)F)n1` (stereo not given) was tested, and the ED90 [1] was 63 gAi/ha, the ED90 (Pontederia vaginalis) was 16 gAi/ha and the ED20 (Oryza sativa) was 63 gAi/ha. For the same compound, the ED20 (Echinochloa oryzicola) was 63 gAi/ha.

For `COc1cc(OC)nc(C(O[Si](C)(C)C)c2ccccc2NS(=O)(=O)C(F)(F)F)n1` (stereo not given), the ED90 [1] was 4 gAi/ha, the ED90 (Pontederia vaginalis) was 4 gAi/ha and the ED20 (Oryza sativa) was 63 gAi/ha. For the same compound, the ED20 (Echinochloa oryzicola) was 1000 gAi/ha.

`COc1cc(OC)nc(C(OC(C)=O)c2ccccc2NS(=O)(=O)C(F)(F)F)n1` (stereo not given) was tested, and the ED90 [1] was 4 gAi/ha, the ED90 (Pontederia vaginalis) was 16 gAi/ha and the ED20 (Oryza sativa) was 63 gAi/ha. It also gave an ED20 (Echinochloa oryzicola) greater than 1000 gAi/ha.

`C/C=N/OC(c1nc(OC)cc(OC)n1)c1ccccc1NS(=O)(=O)C(F)(F)F` (stereo not given) was tested, and the ED90 [1] was 16 gAi/ha, the ED90 (Pontederia vaginalis) was 63 gAi/ha and the ED20 (Oryza sativa) was 63 gAi/ha. For the same compound, the ED20 (Echinochloa oryzicola) was 1000 gAi/ha.

Compound `COc1cc(OC)nc(C(Cl)c2ccccc2NS(=O)(=O)C(F)(F)F)n1` (stereo not given) has an ED90 [1] of 4 gAi/ha, an ED90 (Pontederia vaginalis) of 16 gAi/ha and an ED20 (Oryza sativa) of 63 gAi/ha. The ED20 (Echinochloa oryzicola) was 1000 gAi/ha.

Compound `COc1cc(OC)nc(C(c2ccccc2NS(=O)(=O)C(F)(F)F)N(C)C)n1` (stereo not given) has an ED90 [1] of 16 gAi/ha, an ED90 (Pontederia vaginalis) of 63 gAi/ha and an ED20 (Oryza sativa) of 250 gAi/ha. The ED20 (Echinochloa oryzicola) was greater than 1000 gAi/ha.

With `COc1cc(OC)nc(C(S)c2ccccc2NS(=O)(=O)C(F)(F)F)n1` (stereo not given) the ED90 [1] was 63 gAi/ha, the ED90 (Pontederia vaginalis) was 63 gAi/ha and the ED20 (Oryza sativa) was 250 gAi/ha. The ED20 (Echinochloa oryzicola) was greater than 1000 gAi/ha.

For `COc1cc(OC)nc(C(O)c2ccccc2NS(=O)(=O)C(F)(F)F)n1` (stereo not given), the ED90 [1] was 4 gAi/ha, the ED90 (Pontederia vaginalis) was 4 gAi/ha and the ED20 (Oryza sativa) was 63 gAi/ha. The ED20 (Echinochloa oryzicola) was 1000 gAi/ha.

Compound `COc1cc(OC)nc(C(O)c2ccccc2NS(=O)(=O)C(F)F)n1` (stereo not given) has an ED90 [1] of 16 gAi/ha, an ED90 (Pontederia vaginalis) of 4 gAi/ha and an ED20 (Oryza sativa) of 63 gAi/ha. For the same compound, the ED20 (Echinochloa oryzicola) was 250 gAi/ha.
